Experimental data from ChEMBL document CHEMBL1131309, “Isoindol-1-one analogues of 4-(2'-methoxyphenyl)-1-[2'-[N-(2"-pyridyl)-p-iodobenzamido]ethyl]pipera zine (p-MPPI) as 5-HT1A receptor ligands” (J Med Chem, 1998).

Experiments:
[1] = biological target: T1, 5-hydroxytryptamine receptor 1A (Rattus norvegicus, UniProt P19327)
T1 sequence (P19327 whole entry): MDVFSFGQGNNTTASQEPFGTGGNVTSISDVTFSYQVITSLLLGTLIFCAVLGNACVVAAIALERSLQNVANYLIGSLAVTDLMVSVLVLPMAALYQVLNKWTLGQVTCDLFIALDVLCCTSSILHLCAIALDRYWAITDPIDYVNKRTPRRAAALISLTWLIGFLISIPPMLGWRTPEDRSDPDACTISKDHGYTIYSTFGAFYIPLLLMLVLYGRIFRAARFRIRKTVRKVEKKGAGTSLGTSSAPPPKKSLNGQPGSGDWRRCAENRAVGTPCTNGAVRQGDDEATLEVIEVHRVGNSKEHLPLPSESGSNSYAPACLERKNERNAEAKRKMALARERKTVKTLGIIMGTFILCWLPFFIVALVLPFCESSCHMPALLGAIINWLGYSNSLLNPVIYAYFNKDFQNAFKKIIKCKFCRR
Description: (§1) In vitro binding affinity for 5-hydroxytryptamine 1A receptor in rat hippocampal membranes by [125I]-labeled agonist displacement.

Rattus norvegicus [2] = experiment: Biodistribution was measured in rat liver by injecting the radiolabeled compound intravenously and the value measured after 60 min; format: ADME, organism-based; settings: in vivo, iv, 1 h
Rattus norvegicus [3] = experiment: Biodistribution was measured in rat liver by injecting the radiolabeled compound intravenously and the value measured after 2 min; format: ADME, organism-based; settings: in vivo, iv
Rattus norvegicus [4] = experiment: Biodistribution was measured in rat cerebellum by injecting the radiolabeled compound intravenously and the value measured after 30 min; format: ADME, organism-based; settings: in vivo, iv, 0.5 h
Rattus norvegicus [5] = experiment: Biodistribution was measured in rat cortex by injecting the radiolabeled compound intravenously and the value measured after 60 min; format: ADME, organism-based; settings: in vivo, iv, 1 h
Rattus norvegicus [6] = experiment: Biodistribution was measured in rat hippocampus by injecting the radiolabeled compound intravenously and the value measured after 2 min; format: ADME, organism-based; settings: in vivo, iv
Rattus norvegicus [7] = experiment: Biodistribution was measured in rat kidney by injecting the radiolabeled compound intravenously and the value measured after 2 min; format: ADME, organism-based; settings: in vivo, iv
[8] = Biodistribution was measured in hippocampus region(HP/CB) by injecting the radiolabeled compound intravenously and the value measured after 2 min; format: ADME, organism-based; settings: in vivo, iv
Rattus norvegicus [9] = experiment: Biodistribution was measured in rat liver by injecting the radiolabeled compound intravenously and the value measured after 30 min; format: ADME, organism-based; settings: in vivo, iv, 0.5 h
Rattus norvegicus [10] = experiment: Biodistribution was measured in rat cerebellum by injecting the radiolabeled compound intravenously and the value measured after 60 min; format: ADME, organism-based; settings: in vivo, iv, 1 h
Rattus norvegicus [11] = experiment: Biodistribution was measured in rat striatum by injecting the radiolabeled compound intravenously and the value measured after 2 min; format: ADME, organism-based; settings: in vivo, iv
Rattus norvegicus [12] = experiment: Biodistribution was measured in rat brain by injecting the radiolabeled compound intravenously and the value measured after 30 min; format: ADME, organism-based; settings: in vivo, iv, 0.5 h
Rattus norvegicus [13] = experiment: Biodistribution was measured in rat skin by injecting the radiolabeled compound intravenously and the value measured after 30 min; format: ADME, organism-based, Zone of skin; settings: in vivo, iv, 0.5 h
Rattus norvegicus [14] = experiment: Biodistribution was measured in rat cortex by injecting the radiolabeled compound intravenously and the value measured after 30 min; format: ADME, organism-based; settings: in vivo, iv, 0.5 h
Rattus norvegicus [15] = experiment: Biodistribution was measured in rat cerebellum by injecting the radiolabeled compound intravenously and the value measured after 2 min; format: ADME, organism-based; settings: in vivo, iv
Rattus norvegicus [16] = experiment: Biodistribution was measured in rat heart by injecting the radiolabeled compound intravenously and the value measured after 2 min; format: ADME, organism-based; settings: in vivo, iv
Rattus norvegicus [17] = experiment: Biodistribution was measured in rat heart by injecting the radiolabeled compound intravenously and the value measured after 30 min; format: ADME, organism-based; settings: in vivo, iv, 0.5 h
Rattus norvegicus [18] = experiment: Biodistribution was measured in rat skin by injecting the radiolabeled compound intravenously and the value measured after 60 min; format: ADME, organism-based, Zone of skin; settings: in vivo, iv, 1 h
Rattus norvegicus [19] = experiment: Biodistribution was measured in blood of rat by injecting the radiolabeled compound intravenously and the value measured after 2 min; format: ADME, organism-based; settings: in vivo, iv
Rattus norvegicus [20] = experiment: Biodistribution was measured in rat kidney by injecting the radiolabeled compound intravenously and the value measured after 30 min; format: ADME, organism-based; settings: in vivo, iv, 0.5 h
Rattus norvegicus [21] = experiment: Biodistribution was measured in rat thyroid by injecting the radiolabeled compound intravenously and the value measured after 2 min; format: ADME, organism-based, Thyroid gland; settings: in vivo, iv
Rattus norvegicus [22] = experiment: Biodistribution was measured in rat muscle by injecting the radiolabeled compound intravenously and the value measured after 60 min; format: ADME, organism-based, Muscle tissue; settings: in vivo, iv, 1 h
Rattus norvegicus [23] = experiment: Biodistribution was measured in rat kidney by injecting the radiolabeled compound intravenously and the value measured after 60 min; format: ADME, organism-based; settings: in vivo, iv, 1 h
Rattus norvegicus [24] = experiment: Biodistribution was measured in rat spleen by injecting the radiolabeled compound intravenously and the value measured after 30 min; format: ADME, organism-based; settings: in vivo, iv, 0.5 h
[25] = Biodistribution was measured in hippocampus region(HP/CB) by injecting the radiolabeled compound intravenously and the value measured after 60 min; format: ADME, organism-based; settings: in vivo, iv, 1 h
Rattus norvegicus [26] = experiment: Biodistribution was measured in rat brain by injecting the radiolabeled compound intravenously and the value measured after 2 min; format: ADME, organism-based; settings: in vivo, iv
Rattus norvegicus [27] = experiment: Biodistribution was measured in rat heart by injecting the radiolabeled compound intravenously and the value measured after 60 min; format: ADME, organism-based; settings: in vivo, iv, 1 h
Rattus norvegicus [28] = experiment: Biodistribution was measured in rat striatum by injecting the radiolabeled compound intravenously and the value measured after 60 min; format: ADME, organism-based; settings: in vivo, iv, 1 h
Rattus norvegicus [29] = experiment: Biodistribution was measured in rat lung by injecting the radiolabeled compound intravenously and the value measured after 30 min; format: ADME, organism-based; settings: in vivo, iv, 0.5 h
Rattus norvegicus [30] = experiment: Biodistribution was measured in rat spleen by injecting the radiolabeled compound intravenously and the value measured after 60 min; format: ADME, organism-based; settings: in vivo, iv, 1 h
[31] = biological target: T1, 5-hydroxytryptamine receptor 1A; remark: listed apart in the source
Description: as §1

[32] = Biodistribution was measured in hippocampus region(HP/CB) by injecting the radiolabeled compound intravenously and the value measured after 30 min; format: ADME, organism-based; settings: in vivo, iv, 0.5 h
Rattus norvegicus [33] = experiment: Biodistribution was measured in rat thyroid by injecting the radiolabeled compound intravenously and the value measured after 60 min; format: ADME, organism-based, Thyroid gland; settings: in vivo, iv, 1 h
Rattus norvegicus [34] = experiment: Biodistribution was measured in rat spleen by injecting the radiolabeled compound intravenously and the value measured after 2 min; format: ADME, organism-based; settings: in vivo, iv
Rattus norvegicus [35] = experiment: Biodistribution was measured in rat hippocampus by injecting the radiolabeled compound intravenously and the value measured after 60 min; format: ADME, organism-based; settings: in vivo, iv, 1 h
Rattus norvegicus [36] = experiment: Biodistribution was measured in blood of rat by injecting the radiolabeled compound intravenously and the value measured after 30 min; format: ADME, organism-based; settings: in vivo, iv, 0.5 h
Rattus norvegicus [37] = experiment: Biodistribution was measured in rat lung by injecting the radiolabeled compound intravenously and the value measured after 60 min; format: ADME, organism-based; settings: in vivo, iv, 1 h
Rattus norvegicus [38] = experiment: Biodistribution was measured in rat thyroid by injecting the radiolabeled compound intravenously and the value measured after 30 min; format: ADME, organism-based, Thyroid gland; settings: in vivo, iv, 0.5 h
Rattus norvegicus [39] = experiment: Biodistribution was measured in rat striatum by injecting the radiolabeled compound intravenously and the value measured after 30 min; format: ADME, organism-based; settings: in vivo, iv, 0.5 h
Rattus norvegicus [40] = experiment: Biodistribution was measured in rat brain by injecting the radiolabeled compound intravenously and the value measured after 60 min; format: ADME, organism-based; settings: in vivo, iv, 1 h
Rattus norvegicus [41] = experiment: Biodistribution was measured in rat cortex by injecting the radiolabeled compound intravenously and the value measured after 2 min; format: ADME, organism-based; settings: in vivo, iv
Rattus norvegicus [42] = experiment: Biodistribution was measured in rat muscle by injecting the radiolabeled compound intravenously and the value measured after 2 min; format: ADME, organism-based, Muscle tissue; settings: in vivo, iv
Rattus norvegicus [43] = experiment: Biodistribution was measured in rat hippocampus by injecting the radiolabeled compound intravenously and the value measured after 30 min; format: ADME, organism-based; settings: in vivo, iv, 0.5 h
Rattus norvegicus [44] = experiment: Biodistribution was measured in rat muscle by injecting the radiolabeled compound intravenously and the value measured after 30 min; format: ADME, organism-based, Muscle tissue; settings: in vivo, iv, 0.5 h
Rattus norvegicus [45] = experiment: Biodistribution was measured in rat lung by injecting the radiolabeled compound intravenously and the value measured after 2 min; format: ADME, organism-based; settings: in vivo, iv
Rattus norvegicus [46] = experiment: Biodistribution was measured in blood of rat by injecting the radiolabeled compound intravenously and the value measured after 60 min; format: ADME, organism-based; settings: in vivo, iv, 1 h

## COc1ccccc1N1CCN(CCn2c(=O)c3ccccc3c3ccccc32)CC1
[1]
  Ki: 8.9 nM

## COc1ccccc1N1CCN(CCN2Cc3ccccc3C2=O)CC1
[1]
  Ki: 14.9 nM

## COc1ccccc1N1CCN(CCN2C(=O)CCC2c2ccc(I)cc2)CC1 (stereo not drawn)
Rattus norvegicus [2]
  Biodistribution: 17.95 % dose organ-1
Rattus norvegicus [3]
  Biodistribution: 19.49 % dose organ-1
Rattus norvegicus [4]
  Biodistribution: 0.12 % dose organ-1
Rattus norvegicus [5]
  Biodistribution: 0.048 % dose organ-1
Rattus norvegicus [6]
  Biodistribution: 0.47 % dose organ-1
Rattus norvegicus [7]
  Biodistribution: 3.02 % dose organ-1
[1]
  Ki: 2.54 nM
[8]
  Biodistribution: 1.02 % dose organ-1
Rattus norvegicus [9]
  Biodistribution: 23.02 % dose organ-1
Rattus norvegicus [10]
  Biodistribution: 0.051 % dose organ-1
Rattus norvegicus [11]
  Biodistribution: 0.55 % dose organ-1
Rattus norvegicus [12]
  Biodistribution: 0.21 % dose organ-1
Rattus norvegicus [13]
  Biodistribution: 7.41 % dose organ-1
Rattus norvegicus [14]
  Biodistribution: 0.14 % dose organ-1
Rattus norvegicus [15]
  Biodistribution: 0.46 % dose organ-1
Rattus norvegicus [16]
  Biodistribution: 0.77 % dose organ-1
Rattus norvegicus [17]
  Biodistribution: 0.33 % dose organ-1
Rattus norvegicus [18]
  Biodistribution: 6.93 % dose organ-1
Rattus norvegicus [19]
  Biodistribution: 5.6 % dose organ-1
Rattus norvegicus [20]
  Biodistribution: 2.2 % dose organ-1
Rattus norvegicus [21]
  Biodistribution: 0.06 % dose organ-1
Rattus norvegicus [22]
  Biodistribution: 9.05 % dose organ-1
Rattus norvegicus [23]
  Biodistribution: 1 % dose organ-1
Rattus norvegicus [24]
  Biodistribution: 0.22 % dose organ-1
[25]
  Biodistribution: 0.88 % dose organ-1
Rattus norvegicus [26]
  Biodistribution: 0.71 % dose organ-1
Rattus norvegicus [27]
  Biodistribution: 0.18 % dose organ-1
Rattus norvegicus [28]
  Biodistribution: 0.053 % dose organ-1
Rattus norvegicus [29]
  Biodistribution: 0.75 % dose organ-1
Rattus norvegicus [30]
  Biodistribution: 0.15 % dose organ-1
[31]
  Ki: 2.54 nM
[32]
  Biodistribution: 1.08 % dose organ-1
Rattus norvegicus [33]
  Biodistribution: 0.03 % dose organ-1
Rattus norvegicus [34]
  Biodistribution: 0.27 % dose organ-1
Rattus norvegicus [35]
  Biodistribution: 0.045 % dose organ-1
Rattus norvegicus [36]
  Biodistribution: 3.45 % dose organ-1
Rattus norvegicus [37]
  Biodistribution: 0.42 % dose organ-1
Rattus norvegicus [38]
  Biodistribution: 0.04 % dose organ-1
Rattus norvegicus [39]
  Biodistribution: 0.15 % dose organ-1
Rattus norvegicus [40]
  Biodistribution: 0.08 % dose organ-1
Rattus norvegicus [41]
  Biodistribution: 0.57 % dose organ-1
Rattus norvegicus [42]
  Biodistribution: 14.07 % dose organ-1
Rattus norvegicus [43]
  Biodistribution: 0.13 % dose organ-1
Rattus norvegicus [44]
  Biodistribution: 19.08 % dose organ-1
Rattus norvegicus [45]
  Biodistribution: 1.54 % dose organ-1
Rattus norvegicus [46]
  Biodistribution: 2.08 % dose organ-1
